Reference: PubChem BioAssay AID248 (DTP/NCI, 2004)
Values joined by “and” are separate entries in the source; they are usually repeats but may differ in a detail not shown here. Identical values can stand only once. Inconclusive results and toxic doses are left out. Rule as the data show it: active = T/C of 150% or more; inactive = T/C below 125%.

Test system: L1210 leukemia ip in BDF1 mice, survival T/C
Assay: NCI In Vivo Anticancer Drug Screen. Data for tumor model L1210 Leukemia (intraperitoneal) in B6D2F1 (BDF1) mice
Settings: endpoint: mean survival time, higher = longer survival
How it was run: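 Transplanted-tumor mice were given test agent; controls received vehicle only. Survival readings from the two groups were divided (treated over control).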

[1] = dose: 3.0 mg/kg/injection, schedule: Q04DX003 (ip), vehicle: Klucel (hydroxypropylcellulose) (HPC)
[2] = dose: 100.0 mg/kg/injection, schedule: Q01DX009 (ip), vehicle: saline
[3] = dose: 200.0 mg/kg/injection, schedule: Q01DX009 (ip), vehicle: saline
[4] = dose: 400.0 mg/kg/injection, schedule: Q01DX009 (ip), vehicle: saline
[5] = dose: 100.0 mg/kg/injection, schedule: Q04DX002 (ip), vehicle: Klucel (hydroxypropylcellulose) (HPC)
[6] = dose: 200.0 mg/kg/injection, schedule: Q04DX002 (ip), vehicle: Klucel (hydroxypropylcellulose) (HPC)
[7] = dose: 400.0 mg/kg/injection, schedule: Q04DX002 (ip), vehicle: Klucel (hydroxypropylcellulose) (HPC)
[8] = dose: 100.0 mg/kg/injection, schedule: Q04DX003 (ip), vehicle: saline
[9] = dose: 200.0 mg/kg/injection, schedule: Q04DX003 (ip), vehicle: saline
[10] = dose: 400.0 mg/kg/injection, schedule: Q04DX003 (ip), vehicle: saline
[11] = dose: 100.0 mg/kg/injection, schedule: Q01DX001 (ip), vehicle: saline with Tween-80
[12] = dose: 200.0 mg/kg/injection, schedule: Q01DX001 (ip), vehicle: saline with Tween-80
[13] = dose: 400.0 mg/kg/injection, schedule: Q01DX001 (ip), vehicle: saline with Tween-80
[14] = dose: 100.0 mg/kg/injection, schedule: Q01DX001 (ip), vehicle: saline
[15] = dose: 200.0 mg/kg/injection, schedule: Q01DX001 (ip), vehicle: saline
[16] = dose: 400.0 mg/kg/injection, schedule: Q01DX001 (ip), vehicle: saline

Measured: T/C

Cc1cc([P+](c2ccccc2)(c2ccccc2)c2ccccc2)c(C)cc1[P+](c1ccccc1)(c1ccccc1)c1ccccc1
inactive: dose: 0.37 mg/kg/injection, schedule: Q04DX003 (ip), vehicle: Klucel (hydroxypropylcellulose) (HPC) 96 % of control | dose: 0.75 mg/kg/injection, schedule: Q04DX003 (ip), vehicle: Klucel (hydroxypropylcellulose) (HPC) 106 % of control | dose: 1.5 mg/kg/injection, schedule: Q04DX003 (ip), vehicle: Klucel (hydroxypropylcellulose) (HPC) 93 % of control | [1] 91 % of control

COC(=O)c1ccnc(C(=O)OC)c1
inactive: dose: 100.0 mg/kg/injection, schedule: Q01DX001 (ip), vehicle: saline sonified 98 % of control | [2] 95 % of control | dose: 200.0 mg/kg/injection, schedule: Q01DX001 (ip), vehicle: saline sonified 103 % of control | [3] 95 % of control | dose: 400.0 mg/kg/injection, schedule: Q01DX001 (ip), vehicle: saline sonified 98 % of control | [4] 93 % of control

COc1cc([N+](=O)[O-])ccc1NC(=O)c1cccc([N+](=O)[O-])c1C(=O)O
inactive: [5] 95 % of control | [6] 103 % of control | [7] 100 % of control

CC1(C#N)CCC2c3ccccc3CCC2C1=O (stereo not given)
inactive: [2] 95 % of control | [8] 100 % of control | [3] 96 % of control | [9] 98 % of control | [4] 106 % of control | [10] 97 % of control

CC12CCc3oc(-c4ccccc4)cc3C1=CCCC2=O (stereo not given)
inactive: [11] 102 % of control | [12] 94 % of control | [13] 96 % of control

COc1ccccc1/C=C/c1ccnc2ccccc12
inactive: [14] 101 % of control | [8] 97 % of control | [15] 102 % of control | [9] 100 % of control | [16] 98 % of control | [10] 93 % of control

COc1ccc2nc(N=Nc3c(N)nc(N)[nH]c3=O)sc2c1
inactive: dose: 50.0 mg/kg/injection, schedule: Q04DX003 (ip), vehicle: Klucel (hydroxypropylcellulose) (HPC) 102 % of control | dose: 100.0 mg/kg/injection, schedule: Q01DX001 (ip), vehicle: carboxymethylcellulose (CMC) 106 % of control | dose: 100.0 mg/kg/injection, schedule: Q04DX003 (ip), vehicle: Klucel (hydroxypropylcellulose) (HPC) 104 % of control | dose: 200.0 mg/kg/injection, schedule: Q01DX001 (ip), vehicle: carboxymethylcellulose (CMC) 106 % of control | dose: 200.0 mg/kg/injection, schedule: Q04DX003 (ip), vehicle: Klucel (hydroxypropylcellulose) (HPC) 101 % of control | dose: 400.0 mg/kg/injection, schedule: Q01DX001 (ip), vehicle: carboxymethylcellulose (CMC) 101 % of control

CCCOC(=O)NCCSC(=O)OCCC
inactive: [11] 95 % of control | [12] 95 % of control | [13] 108 % of control

O=C(OCC1OC(Cl)C(OC(=O)c2ccccc2)C1OC(=O)c1ccccc1)c1ccccc1 (stereo not given)
inactive: dose: 100.0 mg/kg/injection, schedule: Q01DX001 (sc), vehicle: olive oil, sesame oil, peanut oil 100 % of control | dose: 200.0 mg/kg/injection, schedule: Q01DX001 (sc), vehicle: olive oil, sesame oil, peanut oil 100 % of control | dose: 400.0 mg/kg/injection, schedule: Q01DX001 (sc), vehicle: olive oil, sesame oil, peanut oil 96 % of control

Cc1c2c([nH]c(=O)c1C)C=CC(Br)C2Br (stereo not given)
inactive: dose: 100.0 mg/kg/injection, schedule: Q01DX001 (ip), vehicle: other 93 % of control | dose: 200.0 mg/kg/injection, schedule: Q01DX001 (ip), vehicle: other 101 % of control | dose: 400.0 mg/kg/injection, schedule: Q01DX001 (ip), vehicle: other 98 % of control

CC(=O)c1cccc(NC(=O)Oc2ccc(C(=O)OCc3ccccc3)cc2)c1
inactive: dose: 100.0 mg/kg/injection, schedule: Q01DX009 (ip), vehicle: Klucel (hydroxypropylcellulose) (HPC) 98 % of control | dose: 200.0 mg/kg/injection, schedule: Q01DX009 (ip), vehicle: Klucel (hydroxypropylcellulose) (HPC) 95 % of control | dose: 400.0 mg/kg/injection, schedule: Q01DX009 (ip), vehicle: Klucel (hydroxypropylcellulose) (HPC) 106 % of control

COc1ccc(/C=C/c2cc[n+](C)cc2)cc1OC
inactive: dose: 75.0 mg/kg/injection, schedule: Q01DX001 (ip), vehicle: carboxymethylcellulose (CMC) 111 % of control | dose: 150.0 mg/kg/injection, schedule: Q01DX001 (ip), vehicle: carboxymethylcellulose (CMC) 109 % of control | dose: 300.0 mg/kg/injection, schedule: Q01DX001 (ip), vehicle: carboxymethylcellulose (CMC) 103 % of control

OCCOC(c1ccccc1)(c1ccccc1)c1ccccc1
inactive: dose: 50.0 mg/kg/injection, schedule: Q01DX009 (ip), vehicle: saline with Tween-80 98 % of control | dose: 100.0 mg/kg/injection, schedule: Q01DX009 (ip), vehicle: saline with Tween-80 100 % of control | dose: 200.0 mg/kg/injection, schedule: Q01DX009 (ip), vehicle: saline with Tween-80 91 % of control

Cc1cc(=O)[nH]c2c1C(=O)c1c(C)cc(=O)n(C)c1C2=O
inactive: dose: 0.75 mg/kg/injection, schedule: Q01DX009 (ip), vehicle: Klucel (hydroxypropylcellulose) (HPC) 95 % of control | dose: 1.0 mg/kg/injection, schedule: Q04DX003 (ip), vehicle: Klucel (hydroxypropylcellulose) (HPC) 93 % of control | dose: 1.5 mg/kg/injection, schedule: Q01DX009 (ip), vehicle: Klucel (hydroxypropylcellulose) (HPC) 100 % of control | dose: 3.0 mg/kg/injection, schedule: Q01DX009 (ip), vehicle: Klucel (hydroxypropylcellulose) (HPC) 95 % of control and 96 % of control | [1] 105 % of control | dose: 6.0 mg/kg/injection, schedule: Q04DX003 (ip), vehicle: Klucel (hydroxypropylcellulose) (HPC) 92 % of control

CCN(CC)CCCOC(=O)c1ccc(N)cc1
inactive: dose: 12.5 mg/kg/injection, schedule: Q01DX009 (ip), vehicle: saline 103 % of control | dose: 25.0 mg/kg/injection, schedule: Q01DX009 (ip), vehicle: saline 97 % of control | dose: 50.0 mg/kg/injection, schedule: Q01DX009 (ip), vehicle: saline 98 % of control

CC(N)CN (stereo not given)
inactive: dose: 100.0 mg/kg/injection, schedule: Q04DX002 (ip), vehicle: saline 100 % of control | dose: 200.0 mg/kg/injection, schedule: Q04DX002 (ip), vehicle: saline 89 % of control | dose: 400.0 mg/kg/injection, schedule: Q04DX002 (ip), vehicle: saline 103 % of control

CN(C)C(=O)NNC(=O)c1ccc(Cl)cc1
inactive: dose: 100.0 mg/kg/injection, schedule: Q04DX003 (ip), vehicle: saline with Tween-80 100 % of control | dose: 200.0 mg/kg/injection, schedule: Q04DX003 (ip), vehicle: saline with Tween-80 95 % of control

O=C(CNC(=O)c1ccccc1)c1ccccc1
inactive: [5] 105 % of control | [6] 102 % of control | [7] 108 % of control

Cc1cccn(C)c1=O
inactive: [14] 95 % of control | [15] 101 % of control | [16] 96 % of control

CC(=O)Nc1ncc(CCC2OCCO2)c(=O)[nH]1
inactive: dose: 100.0 mg/kg/injection, schedule: Q01DX001 (ip), vehicle: Klucel (hydroxypropylcellulose) (HPC) 95 % of control | dose: 200.0 mg/kg/injection, schedule: Q01DX001 (ip), vehicle: Klucel (hydroxypropylcellulose) (HPC) 97 % of control | dose: 400.0 mg/kg/injection, schedule: Q01DX001 (ip), vehicle: Klucel (hydroxypropylcellulose) (HPC) 98 % of control
